Publication PMC12057046, “Elucidation of short linear motif-based interactions of the MIT and rhodanese domains of the ubiquitin-specific protease 8” (Biology Direct, 2025)

Assays:
[1] = target: T1, USP8 Rhod domain (Homo sapiens, UniProt P40818); assay: Competitive fluorescence polarization (displacement of FITC-TET3_1705 − 1720); assay type: binding; settings: FP displacement, 1.5 µM protein, 10 nM FITC-labeled peptide, 50 mM sodium phosphate pH 7.4, 1 mM DTT; mean ± SD, N = 3 technical triplicates (Fig. 3 legend)
T1 construct: USP8 Rhod (174–317) (UniProt: P40818); GST (cleaved yes); made in house; host or cells: Escherichia coli BL21-Gold (DE3)
T1 sequence (P40818 174-317): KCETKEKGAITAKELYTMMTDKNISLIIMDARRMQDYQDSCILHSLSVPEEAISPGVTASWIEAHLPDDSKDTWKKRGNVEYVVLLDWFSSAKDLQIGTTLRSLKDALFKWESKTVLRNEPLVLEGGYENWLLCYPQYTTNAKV
Protocol: We next evaluated the peptide binding of the Rhod domain by ProP-PD selections. […] (February 2025).
The peptides were obtained from GeneCust (France) with > 95% purity. Measurement of the direct binding with a constant concentration of FITC-labeled peptides was performed by increasing concentration of the protein. The KD value from the direct binding experiment was obtained by fitting against a quadratic equation (Eq. 4) where “pept” indicates the fixed probe peptide concentrations, X indicates the protein concentration, the constant A is the signal amplitude divided by probe peptide concentration, and B is the plateau value. Eq. 4: [drawing 9]
Displacement experiments were carried out by increasing concentration of the unlabeled peptides. The data were fitted with a sigmoidal dose-response equation. The results were analysed with GraphPad Prism version 9.2.0.

[2] = test system: USP8 MIT domain; assay: Proteomic peptide-phage display (ProP-PD) selection against USP8 MIT domain; assay type: binding, human; set-up: Confidence: scale not given here; settings: for NGS counts (%): ProP-PD, human disorderome library, GST-tagged MIT bait, four rounds of selection, percent of NGS counts associated with each peptide, Fig. 1B; for max_counts: Total NGS counts; for Confidence: calculated based on four metrics: overlapping peptides, replicated peptides, motif match, peptide counts; for Counts: fraction of NGS counts for a selection; for Promiscuity: number of baits selections where the peptide has been observed, calculated on the domain level; for Replicates: number of screens against the bait protein in which the peptide has been found; for Specificity: proportion for the current bait of the total NGS read counts of the peptide for all baits screened with this library
Protocol: We explored the peptide-binding of the USP8 MIT domain by using the purified GST-tagged MIT domain as bait in proteomic peptide-phage display (ProP-PD) selections and a library designed to display the predicted unstructured regions of the human proteome. The peptide-coding regions of the binding-enriched phage pools were analysed by next-generation sequencing (NGS). After filtering for high confidence ligands, ten ligands remained (Fig. 1B; Supplementary Table S1). None of the ten identified protein-protein interactions had been previously reported, based on comparison with the information available in IntAct, HIPPIE and BioGrid (February 2025). Of the USP8 interacting proteins found, the D site-binding protein (DBP), which is a clock-controlled transcription factor, appears as an interesting ligand as USP8 has been reported to be involved in controlling the circadian rhythm. Also, the CCDC88A-encoded protein Girdin is an interactor of potential biological relevance as it is a scaffolding protein involved in the EGFR pathway which USP8 is known to regulate. At the motif level, there was no shared consensus motif among the ten peptide ligands. However, by manual inspection we noticed that four of the peptides contained a shared [LI]xxR[IY]xxL sequence, which appears to be a variation of the [DE]xxLxxRLxxL[KR] MIM1 motif described in the Eukaryotic Linear Motif resource (ELM) (Fig. 1B). We performed a SPOT array alanine scanning analysis in which peptides are synthesised on a membrane, and where each amino acid position of the peptide is mutated to alanine (or glycine if alanine is in the wild type peptide) to evaluate the effect of the amino acid residues in binding. We tested two peptides containing the apparent MIM1-like motif, one from Girdin (Girdin1192 − 1207) and one from the histone-lysine N-methyltransferase SETD1B (SETD1B492 − 507). […] AlphaFold3 (AF3) modelling of the four peptides with the variant MIM1 motif and the MIT domain docked the peptides with high confidence (ipTM scores: HIVEP1_741 − 756: 0.87, Girdin1192 − 1207: 0.85, MLPH481 − 496: 0.82, SETD1B492 − 507: 0.75) at the expected MIM1 binding pocket (Fig. 1D). […] However, the USP8 MIT selection was dominated (more than 94% of NGS counts) by two peptides that lack an apparent MIM1 motif. The two peptides were from the EF-hand calcium-binding domain-containing protein 12 (EFCAB12_1 − 16: […]) and from DBP (DBP116 − 131: […]) (Fig. 1B). […] In comparison to this, the EFCAB12_1 − 16 peptide shares a potential Dx[YF]xxxH[SG] motif with the DBP116 − 131 (Fig. 1B). […] The AF3 model of DBP116 − 131 peptide supports the interaction of D120 of the DBP116 − 131 peptide with the residues K74 and N71 in the MIT domain (Fig. 1G), emphasizing the significance of the aspartic acid at this position. […] Of them, two peptides (SYNE2_853 − 868 and PKNOX1_56 − 71) where placed in the same binding site as the Girdin and DBP peptides with high confidences by AF3 modelling (ipTM 0.92 and 0.74; Supplementary Fig. S3).
Four rounds of phage selections were carried out using the second generation human disorderome library or the constructed deep mutational scanning library. At least three individual replicates were used for each bait protein. 10 µg of GST-tagged proteins or GST control (diluted in PBS from the stock of proteins kept in the purification elution buffer) were immobilized in 100 µL PBS on a 96-well MaxiSorp (Nunc) plate overnight at 4 °C. The plates were incubated with blocking buffer (with 0.5% BSA in PBS) for 1 h at 4 °C followed by washing with 0.05% Tween 20 in PBS four times. The naïve phage library (10^11 CFU) was diluted in 1/5th volume PEG/NaCl (20% PEG-8000, 0.4 M NaCl) and 1X PBS, incubated on ice for 10 min and centrifuged at 10,000 [drawing 3] g for 10 min. The pellet was resuspended in the volume of PBS (100 µL/ well). […]

[3] = test system: USP8 MIT domain; assay: SPOT array alanine scanning, USP8 MIT domain; assay type: binding, human; settings: cellulose-bound peptides, GST-tagged MIT 100 µM, 5% skim milk TBST, overnight 4 °C, anti-GST HRP chemiluminescence; normalized to wild type
Protocol: SPOT array alanine scanning of peptides was designed, and cellulose-bound peptides were synthesized using Fluorenylmethyloxycarbonyl (Fmoc) solid phase synthesis with a MultiPep synthesizer (INTAVIS Peptide Services, Tübingen, Germany). The membranes of predicted peptides were purchased by JPT Peptide Technologies (Berlin, Germany). The membranes were incubated with blocking buffer containing 5% skim milk in TBST (50 mM Tris, 150 mM NaCl pH 7.5, 0.05% Tween-20) for two hours at room temperature. The blocked membranes were incubated with GST-tagged proteins (100 µM for MIT domain and 150 µM for the Rhodanese domain) in blocking buffer overnight at 4 °C. After rinsed with TBST the membranes were incubated with HRP-conjugated anti-GST antibody (Cytiva, RPN1236; 1:3000 dilution) in blocking buffer for 1 h at 4 °C and subsequently rinsed with TBST to remove any excess antibody. The ECL reagent (Clarity Max Western ECL substrate, 1705062, BioRad) was used for chemiluminescence read-out with the ChemiDoc Imaging system (BioRad). The images were analysed with Fiji (ImageJ2 version 2.9.0). SLiMSearch4 was used to design the peptide arrays with known interactors predicted to contain the motifs. The background signal intensity was subtracted, and the corrected signal intensities were normalized to the positive control and presented as percentage.

[4] = test system: USP8 MIT domain; assay: SPOT array of predicted peptides from known interactors, USP8 MIT domain; assay type: binding, human; settings: for Percentage (%) normalized to highest intensity and corrected for background: SPOT array, GST-tagged MIT 100 µM, overnight 4 °C, chemiluminescence, highest intensity = DNAJB6; for Percentage (%): Supplementary Fig. 4B, normalized to the highest intensity and corrected for background
Text: To further assess the SLiM-based interactions of the USP8 MIT domain, we designed a peptide array tiling 24 potential binding sites in previously reported USP8 interactors. We used SLiMSearch to search for peptides that contain shorter or longer matches to the motif (Supplementary Table S4A). […] The DNAJB6_118 - 130 peptide was predicted as a binder based on a partial DFx{2,3}R motif. The DNAJB6-USP8 interaction is supported by previous GST-pulldown experiments and colocalization of the two proteins in male mouse germ cells, and the interaction is thought to be of importance to the protein quality control to yield functional spermatozoa. In the case of the CDH1_863 - 877 peptide it was predicted as USP8 MIT ligand based on the presence of an RFxxL motif. The previous support of the CDH1-USP8 interaction is based on proximity labelling mass spectrometry, and our results thus provide evidence for a binary interaction between the two proteins and define a binding site. To confirm that the motifs used to predict the interactions were of importance for binding we designed an alanine scanning peptide SPOT array analysis of the DNAJB6_118 - 130 and the CDH1_863 - 877 peptides. […] In summary, we find that the USP8 MIT domain binds to a MIM1-like motif that can be expressed by [[…]], as well as degenerate variants thereof. […] The membranes of predicted peptides were purchased by JPT Peptide Technologies (Berlin, Germany). The membranes were incubated with blocking buffer containing 5% skim milk in TBST (50 mM Tris, 150 mM NaCl pH 7.5, 0.05% Tween-20) for two hours at room temperature. The blocked membranes were incubated with GST-tagged proteins (100 μM for MIT domain and 150 μM for the Rhodanese domain) in blocking buffer overnight at 4 °C. After rinsed with TBST the membranes were incubated with HRP-conjugated anti-GST antibody (Cytiva, RPN1236; 1:3000 dilution) in blocking buffer for 1 h at 4 °C and subsequently rinsed with TBST to remove any excess antibody. The ECL reagent (Clarity Max Western ECL substrate, 1705062, BioRad) was used for chemiluminescence read-out with the ChemiDoc Imaging system (BioRad). The images were analysed with Fiji (ImageJ2 version 2.9.0). […] used to design the peptide arrays with known interactors predicted to contain the motifs. The background signal intensity was subtracted, and the corrected signal intensities were normalized to the positive control and presented as percentage.

Kd [1] [µM] | Compound | NGS counts (%) [2] [%] | max_counts [2] | Confidence [2] | Counts [2] | Promiscuity [2] | Replicates [2] | Specificity [2] | residues important for binding by SPOT array alanine scanning [3] | Percentage (%) normalized to highest intensity and corrected for background [4] [%] | Percentage (%) [4] [%]
10 ± 2 | CSCC[C@H](NC(=O)CN)C(=O)N[C@@H](CCC(=O)O)C(=O)N[C@@H](CCCNC(=N)N)C(=O)N[C@H](C(=O)N[C@@H](CC(C)C)C(=O)NCC(=O)NCC(=O)N[C@@H](CC(C)C)C(=O)N[C@@H](CO)C(=O)N[C@@H](CO)C(=O)N1CCC[C@H]1C(=O)N[C@@H](CC(C)C)C(=O)N[C@@H](CCCNC(=N)N)C(=O)N[C@@H](CC(C)C)C(=O)N[C@@H](CC(C)C)C(=O)O)C(C)C [KIAA1614_568 − 583] | – | – | – | – | – | – | – | – | – | –
33 ± 9 | CSCC[C@H](NC(=O)[C@H](CCCCN)NC(=O)[C@H](C)NC(=O)[C@H](CCC(=O)O)NC(=O)[C@H](Cc1c[nH]c2ccccc12)NC(=O)[C@H](CC(C)C)NC(=O)[C@H](C)NC(=O)[C@H](CC(C)C)NC(=O)CN)C(=O)N[C@@H](CCCCN)C(=O)N[C@@H](CCC(N)=O)C(=O)N[C@@H](CC(C)C)C(=O)N[C@@H](C)C(=O)N[C@@H](CCC(=O)O)C(=O)N[C@@H](CCCNC(=N)N)C(=O)N[C@@H](C)C(=O)O [TET3_1705 − 1720] | – | – | – | – | – | – | – | – | – | –
– | EVEHRDLEDRYNQLLK [Girdin1192 − 1207, CCDC88A-encoded protein Girdin peptide] | 1.10 | 80 | 2 | 0.002924 | 1 | 3 | 1 | binding to the Girdin1192 − 1207 peptide was lost when the residues LExRYxxLL were mutated to alanine | – | –
– | NEWGNRFKKLADMYG [CDH1_863 − 877, Cadherin-1 peptide] | – | – | – | – | – | – | – | corroborated the RFxxL motif and revealed a longer stretch is contributing to binding, with an upstream tryptophan being critical for the interaction | 71 | 71
– | PEKPHDSLDSRIEMLL [SETD1B492 − 507, Histone-lysine N-methyltransferase SETD1B peptide] | 1.37 | 70 | 3 | 0.001866 | 1 | 3 | 1 | confirmed the contributions of the motif residues in binding and the aspartic acid in position p2 of the motif | – | –
– | PFEDFFGNRRGPR [DNAJB6_118 − 130, DnaJ homolog subfamily B member 6 peptide] | – | – | – | – | – | – | – | confirmed the importance of the aspartic acid and the phenylalanine of the predicted motif (DFx{2,3}R) and showed that the mutations of the flanking residues also reduced binding | 100 | 100
– | YVDLDAFLLEHGLPPS [DBP116 − 131] | 16.16 | 858 | 2 | 0.06958 | 3 | 3 | 0.9006 | revealed the importance of an extended DxDxFxxEHG stretch | 67 | 67
